Experimental findings from US20060062863A1, “Compositions for anti-obesity, health-restorative and health-promotional benefits” (priority 2004, published 2006) are described below.

The test is described as follows: Food intake and body weight in haloperidol-treated albino rats. Format: in vivo. Particulars: for % change in body weight: day-21 vs initial value; for % change in food intake: during the 21-day period vs initial value. The text has this: The results of administration of the Type-I saponins or the total extractives (comprising Type-I to -III compounds) of Chlorophytum arundinaceum on the attendant changes in the food intake and body weight of albino rats (270±20 grams) are given in Table-1. Administration of haloperidol causes obesity as it appreciably increases food intake and induces rapid weight gain. The feeder contained at least three times more pellets than are normally consumed. Food intake and the body weight were assessed for one week in all rats prior to initiation of administration of the test compound(s). Both Type-I saponins and the total extractives annulled the gluttonous craving for food due to haloperidol with appreciable decrease in weight gain, compared to the haloperidol group. […] Sibutramine is used as a recognized anorexic drug.

[1] abbreviates: 10 mg/Kg p.o. once daily for 21 days + haloperidol 20 mg/Kg i.p.
Setting [2] is: haloperidol 20 mg/Kg i.p. once daily for 21 days, alone.

Turning to `CC(C)CC(N(C)C)C1(c2ccc(Cl)cc2)CCC1` (stereo not shown) [Sibutramine], under setting [1], the “% change in body weight” value is “+0.28%” and the “% change in food intake” value is listed as −0.37%.
On to `O=C(CCCN1CCC(O)(c2ccc(Cl)cc2)CC1)c1ccc(F)cc1` [Haloperidol], for which, under setting [2], the “% change in body weight” value is reported as “+35.13%” and the “% change in food intake” value was “+45.32%”.
